Measured values taken from patent publication US6835751B2, “Bicyclic amino acids as pharmaceutical agents” (Warner-Dambert Company LLC, priority 1999, dated 2004).
Counter-ions that a name gives are not always drawn.

Tested on: α2δ subunit
Experiment: radioligand binding assay using [3H]gabapentin and the α2δ subunit
Conditions: [3H]gabapentin radioligand; α2δ subunit from porcine brain tissue

`NC[C@@]1(CC(=O)O)C[C@H]2CCCC[C@H]2C1` [((1α,6α,8β)(2-Aminomethyl-octahydro-inden-2-yl)-acetic Acid Hydrochloride] was tested. Which “α2δ binding affinity” value did it give?
The value was over 10 µM.

For `NC[C@@]1(CC(=O)O)C[C@H]2CC[C@H]2C1` [(1α,3β,5α)(3-Aminomethyl-bicyclo[3.2.0]hept-3-yl)-acetic acid hydrochloride], which “α2δ binding affinity” value is on record?
The value was 0.332 µM.

For `NC[C@]1(CC(=O)O)C[C@H]2CCC[C@H]2C1` [(1α,3α,5α)(2-Aminomethyl-octahydro-pentalen-2-yl)-acetic Acid Hydrochloride], which “α2δ binding affinity” value is on record?
Its value is 1.58 µM.

Which “α2δ binding affinity” value does the source give for `NCC1(CC(=O)O)C[C@H]2CC[C@@H]2C1` (racemic) [(±)-(1α,5β)(3-aminomethyl-bicyclo[3.2.0]hept-3-yl)-ascetic Acid Hydrochloride] here?
Its value is 2.86 µM.

Which “α2δ binding affinity” value does the source give for `NCC1(CC(=O)O)C[C@H]2CCCC[C@@H]2C1` (racemic) [(±)-(1α,6β)(2-Aminomethyl-octahydro-inden-2-yl)-acetic Acid Hydrochloride] here?
Its value is over 10 µM.

`NC[C@]1(CC(=O)O)C[C@H]2CC[C@H]2C1` [(1α,3α,5α)(3-Aminomethyl-bicyclo[3.2.0]hept-3-yl)-acetic Acid Hydrochloride] was tested. Which “α2δ binding affinity” value did it give?
Its value is 0.038 µM.

With `NCC1(CC(=O)O)C[C@H]2CCC[C@@H]2C1` (racemic) [(±)-(1α,5β)(2-Aminomethyl-octahydro-pentalen-2-yl)-acetic Acid Hydrochloride] as the molecule, how does the “α2δ binding affinity” value read?
Its value is over 10 µM.

For `NC[C@]1(CC(=O)O)C[C@H]2CCCC[C@H]2C1` [(1α,6α,8α)(2-Aminomethyl-octahydro-inden-2-yl)-acetic acid hydrochloride], which “α2δ binding affinity” value is on record?
The value was 0.72 µM.

Tested on: carrageenan-induced hyperalgesia model
Experiment: Carrageenin-induced hyperalgesia, rat paw pressure test (Randall-Selitto)
Type: in vivo
Conditions: dosed orally at 30 mg/kg; 1 hour postdose
Procedure: Carrageenin-Induced Hyperalgesia
Nociceptive pressure thresholds were measured in the rat paw pressure test using an analgesimeter (Randall-Selitto method: Randall L. O. and Selitto J. J., “A method for measurement of analgesic activity on inflamed tissue,” Arch. Int. Pharmacodyn., 1957;4:409-419). Male Sprague-Dawley rats (70-90 g) were trained on this apparatus before the test day. Pressure was gradually applied to the hind paw of each rat and nociceptive thresholds were determined as the pressure (g) required to elicit paw withdrawal. A cutoff point of 250 g was used to prevent any tissue damage to the paw. On the test day, two to three baseline measurements were taken before animals were administered 100 μL of 2% carrageenin by intraplantar injection into the right hind paw.
(R)-2-Aza-spiro[4.5]decane-4-carboxylic acid hydrochloride was tested in the above carrageenan-induced hyperalgesia model. The compound was dosed orally at 30 mg/kg, and 1 hour postdose gave a percent of maximum possible effect ([…]) of 53%. At 2 hours postdose, it gave only 4.6% of MPE.

For `Cl.O=C(O)[C@H]1CNCC12CCCCC2` [(R)-2-Aza-spiro[4.5]decane-4-carboxylic acid hydrochloride], which “percent of maximum possible effect (APE)” value is on record?
The value was 53%.

Same assay, conditions: dosed orally at 30 mg/kg; 2 hours postdose

`Cl.O=C(O)[C@H]1CNCC12CCCCC2` [(R)-2-Aza-spiro[4.5]decane-4-carboxylic acid hydrochloride] was tested. Which “% of MPE” value did it give?
The value was 4.6%.
